Laboratory results from ChEMBL document CHEMBL1136160, “Design, synthesis and evaluation of novel azasugar-based MMP/ADAM inhibitors” (Bioorg Med Chem Lett, 2003).

How the values were obtained:
Stromelysin-1 = Stromelysin-1 (Homo sapiens, UniProt P08254); assay: Inhibition of recombinant human matrix metalloprotease-3
[1] = target: Matrix metalloproteinase-9 (Homo sapiens, UniProt P14780); assay: Inhibition of recombinant human matrix metalloprotease-9 (gelatinase B)
Interstitial collagenase [2] = target: T1, Interstitial collagenase (Homo sapiens, UniProt P03956); assay: Inhibition of Recombinant human matrix metalloprotease-1
T1 sequence (P03956 whole entry): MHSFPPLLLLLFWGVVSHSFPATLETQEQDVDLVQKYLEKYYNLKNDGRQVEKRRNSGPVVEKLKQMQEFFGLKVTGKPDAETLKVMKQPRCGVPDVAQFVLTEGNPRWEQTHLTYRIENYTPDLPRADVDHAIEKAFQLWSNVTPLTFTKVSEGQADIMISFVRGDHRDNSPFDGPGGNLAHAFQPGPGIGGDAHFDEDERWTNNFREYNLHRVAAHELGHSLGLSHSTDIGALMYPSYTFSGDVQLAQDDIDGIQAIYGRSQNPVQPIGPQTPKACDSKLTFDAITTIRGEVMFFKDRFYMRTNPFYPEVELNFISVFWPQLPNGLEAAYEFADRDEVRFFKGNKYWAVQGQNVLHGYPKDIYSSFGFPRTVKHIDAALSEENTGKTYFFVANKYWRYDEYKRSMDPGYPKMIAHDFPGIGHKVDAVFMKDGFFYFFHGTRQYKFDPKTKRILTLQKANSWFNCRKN

[3] = target: Disintegrin and metalloproteinase domain-containing protein 17 (Homo sapiens, UniProt P78536); assay: Inhibition of recombinant human tumor necrosis factor-alpha converting enzyme
Disintegrin and metalloproteinase domain-containing protein 17, sequence (P78536 whole entry, the tested form may be a part): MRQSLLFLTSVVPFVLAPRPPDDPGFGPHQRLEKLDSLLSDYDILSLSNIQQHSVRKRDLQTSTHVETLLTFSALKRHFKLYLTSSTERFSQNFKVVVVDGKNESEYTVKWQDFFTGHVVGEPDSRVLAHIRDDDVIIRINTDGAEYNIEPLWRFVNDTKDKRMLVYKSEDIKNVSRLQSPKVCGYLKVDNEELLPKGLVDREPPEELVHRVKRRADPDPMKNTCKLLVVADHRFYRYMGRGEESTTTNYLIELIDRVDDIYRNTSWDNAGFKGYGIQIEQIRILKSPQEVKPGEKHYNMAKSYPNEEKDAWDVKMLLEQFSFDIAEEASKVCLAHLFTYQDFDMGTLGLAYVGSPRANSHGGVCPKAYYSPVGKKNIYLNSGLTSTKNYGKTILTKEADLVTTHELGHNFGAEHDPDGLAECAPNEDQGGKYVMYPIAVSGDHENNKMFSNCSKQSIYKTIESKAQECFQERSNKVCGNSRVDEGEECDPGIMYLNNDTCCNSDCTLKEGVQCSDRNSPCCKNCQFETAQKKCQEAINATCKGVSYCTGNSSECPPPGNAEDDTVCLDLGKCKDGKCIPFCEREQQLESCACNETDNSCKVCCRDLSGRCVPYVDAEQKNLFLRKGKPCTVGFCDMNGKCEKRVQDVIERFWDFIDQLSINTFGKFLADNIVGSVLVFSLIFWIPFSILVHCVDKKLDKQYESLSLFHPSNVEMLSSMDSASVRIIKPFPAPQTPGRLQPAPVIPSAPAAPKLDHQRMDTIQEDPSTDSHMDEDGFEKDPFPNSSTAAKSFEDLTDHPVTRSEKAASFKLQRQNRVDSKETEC

Interstitial collagenase [4] = target: T1, Interstitial collagenase; assay: Inhibition of recombinant human matrix metalloprotease-1

Stromelysin-1, sequence (P08254 whole entry): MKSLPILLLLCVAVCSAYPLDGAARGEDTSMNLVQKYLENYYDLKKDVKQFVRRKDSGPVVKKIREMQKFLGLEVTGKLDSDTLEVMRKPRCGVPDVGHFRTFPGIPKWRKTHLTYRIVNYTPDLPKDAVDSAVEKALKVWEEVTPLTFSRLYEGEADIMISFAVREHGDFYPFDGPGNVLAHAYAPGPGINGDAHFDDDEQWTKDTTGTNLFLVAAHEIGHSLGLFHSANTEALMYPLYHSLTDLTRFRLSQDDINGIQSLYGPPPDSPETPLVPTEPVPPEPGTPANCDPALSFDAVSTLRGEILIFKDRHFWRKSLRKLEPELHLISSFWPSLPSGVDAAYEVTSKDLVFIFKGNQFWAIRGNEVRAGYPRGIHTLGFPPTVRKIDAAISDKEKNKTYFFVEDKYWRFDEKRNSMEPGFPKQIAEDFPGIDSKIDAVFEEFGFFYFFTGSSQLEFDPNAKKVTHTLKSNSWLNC
Matrix metalloproteinase-9, sequence (P14780 whole entry): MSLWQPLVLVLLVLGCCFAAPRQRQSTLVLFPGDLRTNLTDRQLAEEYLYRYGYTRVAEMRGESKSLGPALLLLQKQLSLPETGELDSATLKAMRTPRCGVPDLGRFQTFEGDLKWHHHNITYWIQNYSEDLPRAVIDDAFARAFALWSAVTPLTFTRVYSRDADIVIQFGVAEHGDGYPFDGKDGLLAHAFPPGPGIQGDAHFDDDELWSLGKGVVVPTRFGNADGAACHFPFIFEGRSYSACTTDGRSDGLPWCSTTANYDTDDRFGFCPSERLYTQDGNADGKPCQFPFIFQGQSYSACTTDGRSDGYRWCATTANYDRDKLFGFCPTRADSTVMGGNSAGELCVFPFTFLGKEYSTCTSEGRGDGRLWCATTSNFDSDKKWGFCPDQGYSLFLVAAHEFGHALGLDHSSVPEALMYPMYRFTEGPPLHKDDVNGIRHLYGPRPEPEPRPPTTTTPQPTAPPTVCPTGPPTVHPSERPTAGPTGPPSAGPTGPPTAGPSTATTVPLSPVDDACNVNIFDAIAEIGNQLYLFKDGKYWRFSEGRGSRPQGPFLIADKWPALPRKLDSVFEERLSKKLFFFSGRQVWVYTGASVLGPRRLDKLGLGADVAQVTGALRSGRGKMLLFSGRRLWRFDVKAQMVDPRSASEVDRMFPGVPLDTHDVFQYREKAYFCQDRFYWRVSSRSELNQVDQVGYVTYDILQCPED

| Compound | Ki (Stromelysin-1) | Ki [1] | Ki (Interstitial collagenase [2]) | Ki [3] | Ki (Interstitial collagenase [4]) |
| --- | --- | --- | --- | --- | --- |
| COc1ccc(S(=O)(=O)N2C[C@@H]3OC(C)(C)O[C@H]3[C@@H](OC(C)=O)[C@@H]2C(=O)NO)cc1 | 0.05 µM | 0.047 µM | 0.162 µM | 0.021 µM | – |
| COc1ccc(S(=O)(=O)N2C[C@@H]3OC(C)(C)O[C@H]3[C@@H](O)[C@@H]2C(=O)NO)cc1 | 0.0037 µM | 0.021 µM | 0.026 µM | 0.04 µM | – |
| COc1ccc(S(=O)(=O)N2C[C@H](O)[C@H]3OC(C)(C)O[C@H]3[C@@H]2C(=O)NO)cc1 | 0.044 µM | 0.31 µM | – | 0.022 µM | 0.554 µM |
